Reference: the supplement of paper PMC3068080

Experiments:
TGFBR1 mRNA [1] = test: remaining TGFBR1 mRNA relative to control siRNA (off-target knock-down) (fraction of control); quantification method: qPCR; higher = less knock-down
Experimental: (§1)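 Screen-hit siRNA duplexes (19-mer plus 3' dTdT overhang) were transiently transfected into HaCaT cells in 12-well plates. After 48 h, TGFBR1 and TGFBR2 mRNA were quantified by branched DNA assay (QuantiGene, normalised to HPRT1) or by SYBR qPCR (normalised to HPRT1/SMAD4). Values are the remaining mRNA relative to control-siRNA-transfected cells; 1-2 biological replicates.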

TGFBR2 mRNA [2] = test: remaining TGFBR2 mRNA relative to control siRNA (off-target knock-down) (fraction of control); quantification method: qPCR; higher = less knock-down
Experimental: as §1

TGFBR1 mRNA [3] = test: remaining TGFBR1 mRNA relative to control siRNA (off-target knock-down) (fraction of control); quantification method: branched DNA (R1), qPCR (R2); higher = less knock-down
Experimental: as §1

TGFBR2 mRNA [4] = test: remaining TGFBR2 mRNA relative to control siRNA (off-target knock-down) (fraction of control); quantification method: branched DNA (R1), qPCR (R2); higher = less knock-down
Experimental: as §1

TGFBR1 mRNA [5] = test: remaining TGFBR1 mRNA relative to control siRNA (off-target knock-down) (fraction of control); quantification method: qPCR (R1), branched DNA (R2); higher = less knock-down
Experimental: as §1

TGFBR2 mRNA [6] = test: remaining TGFBR2 mRNA relative to control siRNA (off-target knock-down) (fraction of control); quantification method: qPCR (R1), branched DNA (R2); higher = less knock-down
Experimental: as §1

Sequence | remaining TGFBR1 mRNA (TGFBR1 mRNA [3]) | remaining TGFBR2 mRNA (TGFBR2 mRNA [4]) | other results
UCUGUCAUAGGAUCCAAAATT | – | – | remaining TGFBR1 mRNA (TGFBR1 mRNA [1]): 0.74; remaining TGFBR2 mRNA (TGFBR2 mRNA [2]): 0.75
UGCACCUGACUUUUCUCUGTT | 1.37 | 0.72 | –
UGUCUCCUCUCUUGUCCGUTT | 0.95 | 0.7 | –
UUAUUUGGGUGGGCUGGGGTT | 0.98 | 0.75 | –
AUAGACCAUCCCCCUUCUUTT | – | – | remaining TGFBR1 mRNA (TGFBR1 mRNA [5]): 0.46; remaining TGFBR2 mRNA (TGFBR2 mRNA [6]): 0.95
AUGUGUACAGCCCUCUUCCTT | 1.84 | 0.65 | –
UCUCGCUGACGAAGCAGUATT | 1.1 | 0.75 | –
AUCCUGCAGAAUCACGUCCTT | 0.93 | 0.7 | –
ACUACGACUCAGUGCCUGGTT | 1 | 0.7 | –
AGGAUCAGCAGCCCGUAGCTT | 1.52 | 0.72 | –
AUGAUGUCAUCGGCUGUGGTT | – | – | remaining TGFBR1 mRNA (TGFBR1 mRNA [1]): 0.68; remaining TGFBR2 mRNA (TGFBR2 mRNA [2]): 0.15
AGACGGCAAACGACUGUCCTT | 1.27 | 0.75 | –
AACUGGUUCAGGUACUUCCTT | 0.95 | 0.71 | –
CUCUGGGGAUUUGGAGGAUTT | 1.07 | 0.71 | –
AACACCAUCUACUUGAUGGTT | 1.31 | 0.78 | –
AGCUCAAACAGUAUCUGGUTT | 1.45 | 0.7 | –
